pIC50: −log10 of the molar value.

The record followed here is article PMC5876388 (Scientific Reports, 2018).

The test system of data set [1] is Notch signaling (LS174T Notch cells). The data set is described as follows: Notch signaling transcriptional activity assay (luciferase reporter, T-REx system). The data set is classed as cell-based. As to conditions: Homo sapiens, LS174T, 12 h, read-out: IC50 of Notch signal inhibitory activity (luciferase). The source says:
We constructed a cell-based reporter assay with the T-Rex system to evaluate Notch signaling inhibitory activity. Without doxycycline (Dox), the tetracycline repressor (TetR) inhibits the expression of N-terminally FLAG-tagged mouse Notch1(1704–2531), which is 40 aa longer than NICD at the N-terminus. In the presence of Dox, Dox binds to the TetR to release the inhibition of expression of Notch1(1704–2531). Cleavage of Notch1(1704–2531) by γ-secretase generates NICD, which then translocates to the nucleus and forms a heterotrimer with RBP-J driving luciferase transcription (Fig. 2). This assay cells (LS174T Notch cells) was stably incorporated with pGL4.20 luciferase plasmid which has 12 × RBP-J binding site (12 copies of […])-β-globin promoter. Cell viability was measured using a fluorometric microculture cytotoxicity assay. […] The composition of the G. speciosa MeOH extract was partitioned successively with hexane, EtOAc, nBuOH, and water.
Figure 2 The T-REx assay system. Without Dox, expression of Notch1(1704–2531) is suppressed by TetR. The addition of Dox inactivates TetR to initiate expression of Notch1(1704–2531), which is then cleaved by endogenous γ-secretase to form NICD. NICD then translocates to the nucleus and forms a heterotrimer with RBP-J and MAML that binds to a 12× RBP-J binding site to drive luciferase expression. Luciferase activity was detected as Notch signaling pathway activity. Dox: doxycycline, TetR: tetracycline repressor, Luc.: luciferase.
Assay cells (LS174T Notch cells: 2 × 10^4 cells/well) were incubated in a 96-well white plate at 37 °C for 12 h. After incubation, 50 ng/mL Dox was added to each well to induce expression of exogenous Notch1(1704–2531) protein. After incubation at 37 °C for 12 h, the medium was changed to Dox-free medium containing individual samples. Luciferase activity was measured after treatment at 37 °C for 12 h. Cell viability was evaluated by the FMCA method at the same time. These assays were performed in 0.1% DMSO (n = 3). Error bars represent SD.
In a 96-well white plate, Cells (LS174T Notch cells; 2 × 10^4 cells per well) were cultured at 37 °C for 12 h. To express Notch1(1704–2531) protein in the cells, doxycycline (50 ng/mL) was added to each well, and cells were cultured at 37 °C for 12 h. Medium was changed to doxycycline-free medium containing each sample, then cells were incubated with at 37 °C for 12 h. A microplate luminometer (Thermo Fisher Scientific Inc., Waltham, USA) and the Bright-Glo™ Luciferase Assay System (Promega Co., Madison, USA) were used for measurement of Luciferase activity. Fluorometric Microculture Cytotoxicity Assay (FMCA) was used for measurement of cell viability of the sample-treated cells. After incubation of assay cells (2×10^4 cells per well) in a 96-well black plate at 37 °C for 24 h, samples addition was performed at the same time as the luciferase assay. The assay cells were cultures at 37 °C for 12 h. A fluorescence plate reader (Thermo Fisher Scientific Inc., Waltham, USA) was used for determination of cell viability by FMCA.

Data set [2] can be described thus: Cytotoxicity test, AlamarBlue. The settings on record: human, HPB-ALL cells. The procedure: (§1) HPB-ALL cells (1 × 10^4 cells per well) were incubated in 96-well black plates at 37 °C for 72 h. Media also contained different concentrations of compound. After incubation, AlamarBlue was added 10 μL per well. After incubation for 4 h, using a fluorescence plate reader, fluorescence was measured and cell viability was determined. Data are presented as the mean with SD from three independent experiments. […] The effect on protein expression was analyzed by Western blotting. β-Actin was used as internal control. (D,E) Relative protein levels of NICD and HES1 analyzed by densitometry. Data are presented as the mean with SD from three independent experiments. *P < 0.05 is considered statistically significant. P values were analyzed by Student’s t test.
HPB-ALL cells (1 × 10^4 cells per well) were incubated in 96-well black plates in 100 μL of RPMI-1640 medium with 10% FBS, Streptomycin (100 μg/mL) and Penicillin (100 unit/mL). Media also contained different concentrations of compound. Cells were incubated at 37 °C for 72 h. After incubation, AlamarBlue (00–025, DAL1025; Thermo Fisher Scientific Inc., Waltham, USA) was added 10 μL per well. After incubation for 4 h, using a fluorescence plate reader (Thermo Fisher Scientific Inc., Waltham, USA), fluorescence was measured and cell viability was determined.

Data set [3] is described as follows: Cytotoxicity test, FMCA. The data set is classed as cell-based, human. As to conditions: human, HEK293 cells, FMCA, read-out: IC50 cytotoxicity 293. The procedure: (§2) The medium was exchanged to fresh medium with different concentrations of compound and cells were incubated for 72 h.
Data set [4] deals with HEK293 cells. Briefly: Cytotoxicity test, FMCA. The data set is classed as cell-based, human. The settings on record: 72 h. As to the method:
as §2

The test system of data set [5] is HES1. The data set is described as follows: Western blot in HPB-ALL cells. As to conditions: 10 μM, 72 h. The data set is classed as cell-based, human. As to the method:
as §1
(§3) HPB-ALL cells were incubated in a 6 cm dish in 5 mL of RPMI-1640 medium with 10% FBS, Streptomycin (100 μg/mL) and Penicillin (100 unit/mL) at 5 × 10^5 cells per dish (1 × 10^6 cells per dish, when treatment with MG132). Media also contained different concentrations of compound. Cells were incubated at 37 °C for 72 h (12 h, when treatment with MG132). After incubation, cells were centrifuged and collected, and then washed with 500 μL of PBS twice. To prepare cell lysate and confirm protein expression levels, the same method as described above was used.
In general terms: In western blotting, separated proteins are transferred to a membrane and probed.

Data set [6] has as its system NICD. Briefly: Western blot in HPB-ALL cells. The data set is classed as cell-based, human. The settings on record: 10 μM, 72 h. The procedure:
as §1, §3

Data set [7] deals with T1, nicastrin (Homo sapiens, UniProt Q92542).
T1 construct: endogenous in cells; host or cells: HPB-ALL
T1 sequence (Q92542 34-709): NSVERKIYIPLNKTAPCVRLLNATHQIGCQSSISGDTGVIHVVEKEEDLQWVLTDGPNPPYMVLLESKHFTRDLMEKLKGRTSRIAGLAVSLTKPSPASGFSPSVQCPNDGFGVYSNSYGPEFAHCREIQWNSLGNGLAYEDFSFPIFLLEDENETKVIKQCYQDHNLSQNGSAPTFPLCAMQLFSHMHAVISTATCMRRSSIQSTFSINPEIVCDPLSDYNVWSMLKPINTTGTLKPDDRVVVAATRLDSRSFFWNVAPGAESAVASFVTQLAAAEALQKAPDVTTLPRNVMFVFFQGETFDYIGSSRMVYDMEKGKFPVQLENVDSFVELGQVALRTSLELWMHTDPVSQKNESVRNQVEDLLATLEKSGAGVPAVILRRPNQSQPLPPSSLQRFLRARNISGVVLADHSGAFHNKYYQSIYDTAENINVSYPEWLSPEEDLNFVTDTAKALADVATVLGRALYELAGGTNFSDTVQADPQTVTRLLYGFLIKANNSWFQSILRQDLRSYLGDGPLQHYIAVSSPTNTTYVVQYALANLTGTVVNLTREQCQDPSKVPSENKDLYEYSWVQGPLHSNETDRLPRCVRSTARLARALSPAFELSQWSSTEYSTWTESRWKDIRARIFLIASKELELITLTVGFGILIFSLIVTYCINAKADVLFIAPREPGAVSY
Briefly: Western blot in HPB-ALL cells. The data set is classed as cell-based. As to the method:
(§4) (A) Schematic representation of γ-secretase complex. γ-Secretase is composed of four membrane proteins: presenilin1 (PS1), nicastrin (NCT), anterior pharynx defective 1 (APH-1) and presenilin enhancer 2 (PEN-2). […] (E,F) Relative protein levels of nicastrin mature and immature analyzed by densitometry. […] P values were analyzed by Student’s t test.
(§5) Media also contained different concentrations of compound. Cells were incubated at 37 °C for 72 h (12 h, when treatment with MG132). After incubation, cells were centrifuged and collected, and then washed with 500 μL of PBS twice. To prepare cell lysate and confirm protein expression levels, the same method as described above was used.

Data set [8] has as its system APH-1. Briefly: Western blot in HPB-ALL cells. As to conditions: 72 h. The data set is classed as cell-based, human. The procedure: as §4, §5
Data set [9] concerns PEN-2. The data set is described as follows: Western blot in HPB-ALL cells. The data set is classed as cell-based, human. The settings on record: 72 h. As to the method:
as §4, §5

Data set [10] has as its system PS1. Briefly: Western blot in HPB-ALL cells. The data set is classed as cell-based, human. The settings on record: 72 h. As to the method:
as §4, §5

Take `COc1c(O)cc2oc3cc(O)c(CC=C(C)C)c(O)c3c(=O)c2c1C/C=C(\C)CCC=C(C)C` [Compound 2, cowanin]: in data set [1], the pIC50 is 5.62. In data set [2], the IC50 at 72 h amounted to 7.5 µM and the viability at 12 h, 15 µM was 98%. Besides, the IC50 at 72 h in data set [3] amounted to 15.1 µM. In addition, in [4] (10 μM), the “viability of normal human embryonic kidney 293 cells” value is “not affected”. For the same compound, the “cytotoxicity on 293 cells” value in data set [4] (20 μM) is recorded as “cytotoxicity was detected”. Besides, the “expression of HES1” value in data set [5] is on record as “reduced”. Also, the “expression of NICD” value in data set [6] was “reduced”. The “immature versus mature nicastrin” value in data set [7] (15 μM, 12 h, densitometry) is “decreased immature nicastrin stronger than mature nicastrin”. Further, the nicastrin levels result in data set [7] (72 h, Western blot) is given as “reduced”. For the same compound, in data set [7] (cowanin 15 μM + MG132 5 μM, 12 h), the “decrease in nicastrin expression with proteasome inhibitor MG132” value is recorded as “not so marked”. In addition, in data set [8], the “expression of APH-1” value is “didn’t affect”. Besides, the “expression of PEN-2” value in data set [9] is listed as “didn’t affect”. The “expression of PS1” value in data set [10] was “didn’t affect”.

As a reminder, the pIC50 is the IC50 on a negative log10 scale, so that one unit is a factor of ten. By IC50 is commonly meant the point on the concentration scale where inhibition reaches its midpoint. As usually defined, the viability is the share of living cells, or the viability signal relative to a control.
